The values below come from patent EP0174162A2, “Pharmaceutically active dipeptide derivatives” (THE WELLCOME FOUNDATION LIMITED, priority 1984, dated 1986).

Broadly, the IC50 is the point on the concentration scale where inhibition reaches its midpoint.

For one assay, the target named is T1, ACE (Rattus norvegicus, UniProt P47820).
T1 construct: in pithed rats; from tissue; host or cells: whole animal (pithed rat)
T1 sequence (P47820 36-1313): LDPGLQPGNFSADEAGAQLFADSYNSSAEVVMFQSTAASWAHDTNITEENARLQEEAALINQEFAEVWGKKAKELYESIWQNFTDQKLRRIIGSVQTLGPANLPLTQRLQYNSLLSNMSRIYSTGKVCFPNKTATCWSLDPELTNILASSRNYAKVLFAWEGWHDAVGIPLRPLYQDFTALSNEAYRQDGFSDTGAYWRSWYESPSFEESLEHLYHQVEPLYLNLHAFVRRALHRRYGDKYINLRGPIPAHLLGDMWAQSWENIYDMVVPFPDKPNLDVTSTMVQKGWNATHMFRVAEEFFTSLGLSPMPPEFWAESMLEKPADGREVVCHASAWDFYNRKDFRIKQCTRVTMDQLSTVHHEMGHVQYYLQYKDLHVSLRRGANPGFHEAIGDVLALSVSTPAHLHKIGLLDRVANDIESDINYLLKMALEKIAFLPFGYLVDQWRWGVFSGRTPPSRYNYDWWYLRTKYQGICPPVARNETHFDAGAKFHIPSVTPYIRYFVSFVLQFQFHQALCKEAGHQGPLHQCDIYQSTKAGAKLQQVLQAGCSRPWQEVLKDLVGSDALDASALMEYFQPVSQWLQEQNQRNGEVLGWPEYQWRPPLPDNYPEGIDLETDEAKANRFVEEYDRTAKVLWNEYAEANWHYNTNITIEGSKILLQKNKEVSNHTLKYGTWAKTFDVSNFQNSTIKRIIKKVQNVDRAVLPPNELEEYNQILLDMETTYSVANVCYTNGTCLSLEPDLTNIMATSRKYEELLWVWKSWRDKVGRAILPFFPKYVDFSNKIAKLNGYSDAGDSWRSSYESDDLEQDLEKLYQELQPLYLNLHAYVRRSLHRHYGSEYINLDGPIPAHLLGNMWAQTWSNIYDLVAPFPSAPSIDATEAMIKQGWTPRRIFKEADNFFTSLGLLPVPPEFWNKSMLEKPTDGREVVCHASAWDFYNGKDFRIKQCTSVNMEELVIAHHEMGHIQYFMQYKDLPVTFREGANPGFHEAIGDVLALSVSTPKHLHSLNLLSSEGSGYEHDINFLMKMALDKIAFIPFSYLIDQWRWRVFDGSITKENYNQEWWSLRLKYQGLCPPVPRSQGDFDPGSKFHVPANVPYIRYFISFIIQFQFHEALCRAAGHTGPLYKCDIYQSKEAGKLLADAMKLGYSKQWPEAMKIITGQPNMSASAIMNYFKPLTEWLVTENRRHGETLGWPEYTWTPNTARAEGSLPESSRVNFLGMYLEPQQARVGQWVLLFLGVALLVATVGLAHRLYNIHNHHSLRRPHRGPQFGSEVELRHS
The assay can be described thus: ACE inhibition in vivo: angiotensin I induced pressor responses in pithed rats. The following applies: doses 1-100 µgkg^-1min displaced angiotensin I dose response curves rightwards. The method, then: Doses 1-100 µgkg^-1min effectively displaced in a rightwards fashion, angiotensin I dose response curves.

The test system of assay [1] is uninephrectomised, contralateral renal stenotic conscious beagle dogs. The assay can be described thus: Antihypertensive activity in uninephrectomised, contralateral renal stenotic conscious beagle dogs. The class given is in vivo. The conditions noted are these: doses in the range 1-3 mgkg^-1 intravenously.
In a further assay the target is isolated enzyme (Homo sapiens, UniProt P12821). Kind of assay: ACE inhibition on isolated enzyme. In kind it is biochemical. The following applies: read-out: apparent IC50 on isolated enzyme.
Chain of isolated enzyme (P12821 30-1306): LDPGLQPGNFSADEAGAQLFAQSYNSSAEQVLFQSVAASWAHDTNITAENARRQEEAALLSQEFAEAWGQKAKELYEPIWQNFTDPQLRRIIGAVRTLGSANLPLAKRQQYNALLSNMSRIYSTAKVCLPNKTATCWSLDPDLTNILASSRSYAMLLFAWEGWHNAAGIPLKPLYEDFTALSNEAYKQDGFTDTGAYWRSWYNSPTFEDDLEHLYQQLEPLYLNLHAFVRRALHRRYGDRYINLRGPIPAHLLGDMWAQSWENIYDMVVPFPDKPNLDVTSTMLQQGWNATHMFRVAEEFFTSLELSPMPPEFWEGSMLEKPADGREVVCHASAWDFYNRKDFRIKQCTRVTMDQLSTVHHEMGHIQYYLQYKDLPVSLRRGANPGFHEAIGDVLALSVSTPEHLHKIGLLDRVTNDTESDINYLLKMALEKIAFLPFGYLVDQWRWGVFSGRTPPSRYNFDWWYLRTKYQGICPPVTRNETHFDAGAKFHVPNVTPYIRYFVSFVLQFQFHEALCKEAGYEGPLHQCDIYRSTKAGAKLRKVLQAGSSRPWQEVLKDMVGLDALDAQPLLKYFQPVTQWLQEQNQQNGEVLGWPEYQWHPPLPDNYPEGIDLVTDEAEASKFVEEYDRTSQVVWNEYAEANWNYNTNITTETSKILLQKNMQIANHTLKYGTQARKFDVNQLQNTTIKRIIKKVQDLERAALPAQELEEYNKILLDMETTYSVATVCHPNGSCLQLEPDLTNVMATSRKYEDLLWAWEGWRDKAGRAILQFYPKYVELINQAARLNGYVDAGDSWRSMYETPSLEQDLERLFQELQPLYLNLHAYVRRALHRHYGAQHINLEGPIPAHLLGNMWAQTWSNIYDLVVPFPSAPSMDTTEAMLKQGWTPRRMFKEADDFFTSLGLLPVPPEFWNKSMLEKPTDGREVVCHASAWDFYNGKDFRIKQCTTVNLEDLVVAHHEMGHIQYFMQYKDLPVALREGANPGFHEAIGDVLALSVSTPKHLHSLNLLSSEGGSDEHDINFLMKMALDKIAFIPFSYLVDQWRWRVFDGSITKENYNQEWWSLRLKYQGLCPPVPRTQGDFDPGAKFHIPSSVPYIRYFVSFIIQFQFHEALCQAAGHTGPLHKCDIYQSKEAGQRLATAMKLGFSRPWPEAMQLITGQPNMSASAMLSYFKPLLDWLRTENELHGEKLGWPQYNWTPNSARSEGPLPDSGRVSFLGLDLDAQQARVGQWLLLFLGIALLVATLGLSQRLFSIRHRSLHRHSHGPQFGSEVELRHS
Assay [2] has as its system isoprenaline induced tachycardia. Kind of assay: Effect on heart rate: isoprenaline induced tachycardia in pithed rats. The class given is in vivo. The following applies: doses 10-100 µgkg^-1min^-1 displaced isoprenaline dose response curves rightwards. As for the experimental part: Doses 10-100 µgkg^-1min^-1 effectively displaced in a rightwards fashion, isoprenaline dose response curves.

The test system of assay [3] is salt depleted conscious beagle dogs. Kind of assay: Antihypertensive activity in salt depleted conscious beagle dogs. The conditions noted are these: intravenous administration, doses in the range 1-3 mgkg^-1. The class given is in vivo.

`CC(C)NCC(O)COc1cccc2[nH]c(C(=O)NCCCC[C@H](NC(C)C(=O)N3CCC[C@H]3C(=O)O)C(=O)O)cc12` (some centres unmarked) [Example 1]: on ACE, the “inhibition of angiotensin I induced pressor responses” value is recorded as “inhibit in a dose dependent fashion”. Moreover, the hypotensive activity result in assay [1] is listed as “marked hypotensive activity”. The IC50 at isolated enzyme was 11 nM. The “inhibition of isoprenaline induced tachycardia” value in assay [2] is on record as “inhibit in a dose dependent fashion”. For the same compound, the blood pressure result in assay [3] is listed as “reduce blood pressure”.
